Consider 25 molecules from patent publication US10034886B2, “GLP-1 receptor modulators” (Celgene International II SÀRL, priority 2014, dated 2018).

The target of the test is T1, GLP-1R (Homo sapiens, UniProt P43220).
T1 construct: host or cells: GLP-1R CRE-bla CHO-K1 cells
T1 sequence (P43220 24-463): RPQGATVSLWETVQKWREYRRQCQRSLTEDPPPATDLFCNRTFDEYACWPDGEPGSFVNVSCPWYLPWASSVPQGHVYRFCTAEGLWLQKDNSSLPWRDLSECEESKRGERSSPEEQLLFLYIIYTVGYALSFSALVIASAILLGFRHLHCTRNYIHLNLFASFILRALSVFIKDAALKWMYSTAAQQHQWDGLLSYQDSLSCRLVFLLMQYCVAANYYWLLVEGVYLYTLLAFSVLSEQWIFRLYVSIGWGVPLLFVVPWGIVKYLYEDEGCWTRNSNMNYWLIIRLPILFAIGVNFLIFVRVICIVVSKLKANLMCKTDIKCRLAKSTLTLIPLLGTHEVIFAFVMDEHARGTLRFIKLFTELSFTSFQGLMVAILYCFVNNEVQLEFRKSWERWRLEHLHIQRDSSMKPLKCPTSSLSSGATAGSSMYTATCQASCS
T1 sequence (P01275 100-127 partner limits assumed): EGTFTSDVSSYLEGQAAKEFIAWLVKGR
Kind of test: EC20 GLP-1(9-36) PAM cAMP assay: dose response of compound in the presence of fixed concentration of GLP-1(9-36). The class given is cell-based. The note with it: GLP-1R CRE-bla CHO-K1 cells, compound dose response with fixed concentration of GLP-1(9-36), read-out: EC20 GLP-1(9-36) PAM EC50. The method, boiled down: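 GLP-1R CRE-bla CHO-K1 cells treated 30 min at 37 °C with 12-point compound dose response plus fixed EC20 GLP-1(9-36), with IBMX, in HBSS/HEPES/0.1% BSA pH 7.4. Total cAMP measured by luminescent detection against standard curve; EC50 and Emax from non-linear regression.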
On the technique in general: Cyclic AMP is a second messenger, typically raised through Gs and lowered through Gi signalling.
As usually defined, the EC50 is the concentration needed to bring the measured effect to its halfway point. With `CCC[C@H]1CC[C@H](C2CCN(c3cnc(-c4ccc(C[C@H](NC(=O)c5ccc(C)cc5)C(=O)N5CC(C(=O)O)C5)cc4)nc3)CC2)CC1` [Compound 1528], the EC50 was 800 to 2500 nM.
The same measure for `CCC[C@H]1CC[C@H](C2CCN(c3cnc(-c4ccc(C[C@H](NC(=O)c5ccc(CC)cc5)C(=O)N5CC(C(=O)O)C5)cc4)nc3)CC2)CC1` [Compound 1529]: less than 800 nM; for `CCC[C@H]1CC[C@H](C2CCN(c3cnc(-c4ccc(C[C@H](NC(=O)c5ccc(C)s5)C(=O)N5CC(C(=O)O)C5)cc4)nc3)CC2)CC1` [Compound 1530]: 800 to 2500 nM; for `CCC[C@H]1CC[C@H](C2CCN(c3cnc(-c4ccc(C[C@H](NC(=O)c5ccc(C(C)(C)C)nc5)C(=O)N5CC(C(=O)O)C5)cc4)nc3)CC2)CC1` [Compound 1531]: less than 800 nM.
Regarding `CCC[C@H]1CC[C@H](C2CCN(c3cnc(-c4ccc(C[C@H](NC(=O)c5ccn(C(C)(C)C)c5)C(=O)N5CC(C(=O)O)C5)cc4)nc3)CC2)CC1` [Compound 1532], the EC50 was less than 800 nM.
Next, `CCC[C@H]1CC[C@H](C2CCN(c3cnc(-c4ccc(C[C@H](NC(=O)c5ccc(CC)s5)C(=O)N5CC(C(=O)O)C5)cc4)nc3)CC2)CC1` [Compound 1533]: less than 800 nM; `CCC[C@H]1CC[C@H](C2CCN(c3cnc(-c4ccc(C[C@H](NC(=O)c5ccc(C(C)C)s5)C(=O)N5CC(C(=O)O)C5)cc4)nc3)CC2)CC1` [Compound 1534]: less than 800 nM.
For `CCC[C@H]1CC[C@H](C2CCN(c3cnc(-c4ccc(C[C@H](NC(=O)c5ccc(OC(C)C)cc5)C(=O)N5CC(C(=O)O)C5)cc4)nc3)CC2)CC1` [Compound 1535], the EC50 lay in the range of 800 to 2500 nM.
The same measure for `CCC[C@H]1CC[C@H](C2CCN(c3cnc(-c4ccc(C[C@H](NC(=O)c5ccc(C(C)C)cc5)C(=O)N5CC(C(=O)O)C5)cc4)nc3)CC2)CC1` [Compound 1536]: less than 800 nM; for `CCC[C@H]1CC[C@H](C2CCN(c3cnc(-c4ccc(C[C@H](NC(=O)c5cnc(C(C)(C)C)s5)C(=O)N5CC(C(=O)O)C5)cc4)nc3)CC2)CC1` [Compound 1537]: less than 800 nM; for `CCC[C@H]1CC[C@H](C2CCN(c3cnc(-c4ccc(C[C@H](NC(=O)c5ccc(C6CC6)cn5)C(=O)N5CC(C(=O)O)C5)cc4)nc3)CC2)CC1` [Compound 1538]: 800 to 2500 nM.
The same measure for `CCC[C@H]1CC[C@H](C2CCN(c3cnc(-c4ccc(CC(NC(=O)c5ccc(C(C)(C)C)s5)C(=O)NS(=O)(=O)CC)cc4)nc3)CC2)CC1` (stereo partly shown) [Compound 1539]: 2500 to 5000 nM; for `CCC[C@H]1CC[C@H](C2CCN(c3cnc(-c4ccc(CC(NC(=O)c5ccc(C(C)(C)C)s5)C(=O)NS(=O)(=O)CCOC)cc4)nc3)CC2)CC1` (stereo partly shown) [Compound 1540]: less than 800 nM.
As to `CCC[C@H]1CC[C@H](C2CCN(c3cnc(-c4ccc(CC(NC(=O)c5ccc(C(C)(C)C)s5)C(=O)NS(=O)(=O)CCC5CCC5)cc4)nc3)CC2)CC1` (stereo partly shown) [Compound 1541], the concentration giving a half-maximal response (EC50) was in the range of 800 to 2500 nM.
For `CCC[C@H]1CC[C@H](C2CCN(c3cnc(-c4ccc(CC(NC(=O)c5ccc(C(C)(C)C)s5)C(=O)NS(=O)(=O)CC5CC5)cc4)nc3)CC2)CC1` (stereo partly shown) [Compound 1542], the concentration for a half-maximal effect (EC50) was less than 800 nM.
In the case of `CCC[C@H]1CC[C@H](C2CCN(c3cnc(-c4ccc(CC(NC(=O)c5ccc(C(C)(C)C)s5)C(=O)NS(=O)(=O)CC(=O)OC)cc4)nc3)CC2)CC1` (stereo partly shown) [Compound 1543], the EC50 is less than 800 nM.
The same measure for `CCC[C@H]1CC[C@H](C2CCN(c3cnc(-c4ccc(CC(NC(=O)c5ccc(C(C)(C)C)s5)C(=O)NS(=O)(=O)CC(C)(C)C)cc4)nc3)CC2)CC1` (stereo partly shown) [Compound 1544]: less than 800 nM.
The same measure for `CCC[C@H]1CC[C@H](C2CCN(c3cnc(-c4ccc(CC(NC(=O)c5ccc(C(C)(C)C)s5)C(=O)NS(=O)(=O)C(C)C)cc4)nc3)CC2)CC1` (stereo partly shown) [Compound 1545]: less than 800 nM; for `CCC[C@H]1CC[C@H](C2CCN(c3cnc(-c4ccc(CC(NC(=O)c5ccc(C(C)(C)C)s5)C(=O)NS(=O)(=O)C(C)(C)C)cc4)nc3)CC2)CC1` (stereo partly shown) [Compound 1546]: less than 800 nM; for `CCC[C@H]1CC[C@H](C2CCN(c3cnc(-c4ccc(CC(NC(=O)c5ccc(C(C)(C)C)s5)C(=O)NS(=O)(=O)CCN(C)C)cc4)nc3)CC2)CC1` (stereo partly shown) [Compound 1547]: less than 800 nM.
Next, `CCC[C@H]1CC[C@H](C2CCN(c3cnc(-c4ccc(CC(NC(=O)c5ccc(C(C)(C)C)s5)C(=O)NS(=O)(=O)CCNC(=O)OC(C)(C)C)cc4)nc3)CC2)CC1` (stereo partly shown) [Compound 1548]: less than 800 nM.
Regarding `CCC[C@H]1CC[C@H](C2CCN(c3cnc(-c4ccc(CC(NC(=O)c5ccc(C(C)(C)C)s5)C(=O)NS(=O)(=O)C(F)(F)F)cc4)nc3)CC2)CC1` (stereo partly shown) [Compound 1549], the EC50 is less than 800 nM.
Next, `CCC[C@H]1CC[C@H](C2CCN(c3cnc(-c4ccc(CC(NC(=O)c5ccc(C(C)(C)C)s5)C(=O)NS(=O)(=O)CC(F)(F)F)cc4)nc3)CC2)CC1` (stereo partly shown) [Compound 1550]: less than 800 nM; `CCCCCCCOc1ccc(-c2nnc(-c3ccc(C[C@H](NC(=O)c4ccc(C(C)(C)C)cc4)C(=O)N4CC(C(=O)O)C4)cc3)s2)cc1` [Compound 1551]: 2500 to 5000 nM.
Take `CCCCCCCOc1ccc(-c2nnc(-c3ccc(C[C@@H](NC(=O)c4ccc(C(C)(C)C)cc4)C(=O)N4CC(C(=O)O)C4)cc3F)s2)cc1` [Compound 1553]: the EC50 is 800 to 2500 nM.
